# What was measured:
# male C57/BL6 mice = assay: Mouse basal locomotor activity; format: in vivo; conditions: po
# Protocol: To measure basal locomotor activity, male C57/BL6 mice (8-16 weeks) (Jackson Laboratories, Sacramento, Calif.) were transferred in home cages to the testing room approximately 60 minutes prior to testing. Approximately 15 minutes after arrival in the testing room, a dark cycle commenced, with lights turning off and infrared lights turning on for experimenter visibility. Thirty minutes after the lights were turned off, animals were individually weighed and administered either vehicle (20% hydroxypropyl-β-cyclodextrin) Compound 13 (1, 2, 5, 10, or 20 mg/kg P.O.), or another GPR52 agonist (10 mg/kg P.O.) and returned to home cages. Fifteen minutes later, mice were placed into locomotor cages and activity was recorded for 60 minutes.
# male Sprague-Dawley rats [1] = assay: Amphetamine-stimulated locomotor activity in rats; format: in vivo, rat; conditions: 0.5, 1, 2, 5, 10, and 20 mg/kg P.O., amphetamine 0.5 mg/kg SC, FIG. 24
# Protocol: Fifteen minutes later, rats were injected with amphetamine (0.5 mg/kg SC in volume of 1 mL/kg). Activity was then measured for 90 minutes.
# male 129Sv/Ev mice = assay: Prepulse inhibition of the startle response in mice; format: in vivo, mouse; conditions: mice with relatively low PPI; Compound 13 10 mg/kg P.O.; FIG. 25A
# Protocol: (§1) Prepulse inhibition testing was conducted in enclosed startle chambers (Kinder Scientific StartleMonitor System, Kinder Scientific, Poway, Calif.) in which animals were placed into restrainers secured onto startle-sensing plates. A constant background white noise of 65 dB was audible in the chambers throughout testing. […]
# (§2) For each animal, mean startle amplitude for each trial type during the 35-trial block was calculated, and percent prepulse inhibition (% PPI) for each prepulse intensity was calculated as the percent decrease in the mean startle amplitude in response to a given prepulse and 120 dB startle stimulus relative to the mean startle amplitude in response to the 120 dB startle stimulus alone. The % PPI was then calculated for each animal as the mean % PPI across all four prepulse intensities. […]
# male Sprague-Dawley rats [2] = assay: Prepulse inhibition of the startle response in rats; format: in vivo, rat; conditions: 5 or 20 mg/kg P.O., FIGS. 26A-B
# Protocol: as §1, §2
# male Sprague-Dawley rats [3] = assay: Catalepsy (vertical grid) in rats; format: in vivo, rat; conditions: Compound 13 5-100 mg/kg P.O., haloperidol 0.1, 0.3, or 1 mg/kg S.C., 45 minutes post-dose
# Protocol: Catalepsy is used as a model for detecting extrapyramidal side effects of antipsychotic drugs. […] The rats were removed from home cages 45 minutes later and placed on a vertical stainless steel grid, and the latency to move both forepaws from their starting position was measured for a maximum of 30 seconds. The test was repeated three times consecutively.
# Catalepsy is expressed as the average latency to move both forepaws over the three trials. Latency increased in the rats administered haloperidol (see FIG. 27B), but was unchanged in rats administered Compound 13 (see FIG. 27A).
# [4] = Brain penetration (plasma and brain exposure); format: in vivo, mouse; conditions: PO dose 3 mg/kg; male C57BL6 mice; 60 minute time point
# Protocol: Plasma and brain exposure were evaluated to determine the brain penetration of compounds described herein. Male C57BL6 mice were administered a single per oral (PO) dose of compound at 3 or 10 mg/kg (as a free base) formulated in 20% HPCD in 0.9% NaCl. Blood and brain samples were collected 60 minutes post-dose (n=3-6 animals). Blood was collected via cardiac puncture and stored on ice prior to the separation of plasma by centrifugation. Brains were extracted from the cranium and frozen on dry ice. Tissue samples were stored at approximately −80° C. prior to bioanalytical analysis.
# Analyte plasma and brain concentrations were determined by LC/MS/MS.
# male Sprague-Dawley rats [5] = assay: Rat basal locomotor activity; conditions: 0.5, 1, 2, 5, 10, and 20 mg/kg P.O.
# Protocol: Locomotor activity was assessed in a photocell monitoring caging system (Kinder Scientific MotorMonitor System, Kinder Scientific, Poway, Calif.). Each cage consisted of a standard plastic rodent cage (24×45.5 cm) placed inside a stainless steel frame. Infrared photocell beams were located across the long axis of the frame. Interruption of a photocell beam due to movement of the animal in front of a beam was recorded and used as a measure of ambulatory activity. Photocell beam interruptions were automatically recorded by a computer system. Perforated cage tops were placed on top of the test enclosures during testing.
# Activity was then measured for the following 30 minutes. Animals were naïve to the testing apparatus prior to performing the test. Activity is expressed as the total number of ambulations over the 30 minutes of locomotor testing (i.e., 30-60 minutes post-injection).
smiles,measurement,setting,value
"O=C(NCCO)c1cccc2c1CCN2c1cc(Cc2cccc(C(F)(F)F)c2)ccn1 [Compound 13, N-(2-Hydroxyethyl)-1-(4-(3-(trifluoromethyl)benzyl)pyridin-2-yl)indoline-4-carboxamide]",inhibition at 10 mg/kg,male C57/BL6 mice; 10 mg/kg P.O.,70%
same,ED50,"male C57/BL6 mice; 1 h, P.O., activity recorded for 60 minutes, read-out: ED50 (% Inhibition in Mouse Basal Locomotor Activity)",2.7 mg/kg
same,amphetamine-stimulated locomotion,male Sprague-Dawley rats [1],blocked amphetamine-stimulated locomotion at several doses
same,basal % PPI in 'poor performers',male 129Sv/Ev mice,increased
same,MK-801-induced disruption in % PPI in 'good performers',male Sprague-Dawley rats [2]; MK-801 0.3 mg/kg SC,reversed
same,amphetamine-induced disruption in % PPI in 'good performers',male Sprague-Dawley rats [2]; amphetamine 0.5 mg/kg SC,reversed
same,catalepsy: average latency to move both forepaws,male Sprague-Dawley rats [3],unchanged
same,Brain/Plasma Ratio,[4],3.51
same,basal locomotor activity,male Sprague-Dawley rats [5],significant reduction in basal locomotor activity was only seen at the highest dose

# Source: patent US9676758B2, “1-heteroaryl-indoline-4-carboxamides as modulators of GPR52 useful for the treatment or prevention of disorders related thereto” (Arena Pharmaceuticals, Inc., priority 2015, dated 2017)
